Three compounds from US12077503B2, “Substituted cyclic amides and their use as herbicides” (FMC CORPORATION, priority 2015, dated 2024) can be followed below.

Common to all, as to type: in vivo
Assay [1] concerns Kochia (Kochia scoparia). As to the kind of experiment: Test A preemergence. The note with it: Bassia scoparia, pre-emergence, 240 h; for pest or weed control at 125 g/ha: 125 g ai/ha, preemergence, 0 to 100 scale where 0 is no effect and 100 is complete control, read-out: Kochia plant response rating; for pest or weed control at 500 g/ha: 500 g ai/ha, Preemergence, visual injury vs untreated controls after approximately 10 d, read-out: Kochia plant response rating (0 to 100 scale where 0 is no effect and 100 is complete control). In a few lines:
(§1)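 Ratings of 0 (no effect) to 100 (complete control) come from visual comparison with untreated controls roughly 10 d after treatment. Test chemicals, formulated in a non-phytotoxic solvent mixture with surfactant, were applied either as a preemergence directed soil spray on seeded soil or postemergence to one- to two-leaf plants 2 to 10 cm tall.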

Assay [2] deals with barnyardgrass (Echinochloa crus-galli). Kind of assay: Test A preemergence. As to conditions: Echinochloa crus-galli, pre-emergence, 240 h; for pest or weed control at 125 g/ha: 125 g ai/ha, preemergence, 0 to 100 scale where 0 is no effect and 100 is complete control, read-out: Barnyardgrass plant response rating; for pest or weed control at 500 g/ha: 500 g ai/ha, Preemergence, visual injury vs untreated controls after approximately 10 d, read-out: Barnyardgrass plant response rating (0 to 100 scale where 0 is no effect and 100 is complete control). In a few lines: as §1

The test system of assay [3] is giant foxtail (Setaria faberii). As to the kind of experiment: Test A preemergence. The note with it: Setaria faberi, pre-emergence, 240 h; for pest or weed control at 125 g/ha: 125 g ai/ha, preemergence, 0 to 100 scale where 0 is no effect and 100 is complete control, read-out: Foxtail, Giant plant response rating; for pest or weed control at 500 g/ha: 500 g ai/ha, Preemergence, visual injury vs untreated controls after approximately 10 d, read-out: Foxtail, Giant plant response rating (0 to 100 scale where 0 is no effect and 100 is complete control). The method in brief:
as §1

The test system of assay [4] is pigweed (Amaranthus retroflexus). Kind of assay: Test A preemergence. The note with it: Amaranthus retroflexus, pre-emergence, 240 h; for pest or weed control at 125 g/ha: 125 g ai/ha, preemergence, 0 to 100 scale where 0 is no effect and 100 is complete control, read-out: Pigweed plant response rating; for pest or weed control at 500 g/ha: 500 g ai/ha, Preemergence, visual injury vs untreated controls after approximately 10 d, read-out: Pigweed plant response rating (0 to 100 scale where 0 is no effect and 100 is complete control).

Assay [5] concerns ragweed (common ragweed, Ambrosia elatior). Kind of assay: Test A preemergence. As to conditions: Ambrosia artemisiifolia, pre-emergence, 240 h; for pest or weed control at 125 g/ha: 125 g ai/ha, preemergence, 0 to 100 scale where 0 is no effect and 100 is complete control, read-out: Ragweed plant response rating; for pest or weed control at 500 g/ha: 500 g ai/ha, Preemergence, visual injury vs untreated controls after approximately 10 d, read-out: Ragweed plant response rating (0 to 100 scale where 0 is no effect and 100 is complete control). In a few lines:
as §1

In assay [6] the test system is ryegrass, Italian (Italian ryegrass, Lolium multiflorum). As to the kind of experiment: Test A preemergence. The note with it: Lolium multiflorum, pre-emergence, 240 h; for pest or weed control at 125 g/ha: 125 g ai/ha, preemergence, 0 to 100 scale where 0 is no effect and 100 is complete control, read-out: Ryegrass, Italian plant response rating; for pest or weed control at 500 g/ha: 500 g ai/ha, Preemergence, visual injury vs untreated controls after approximately 10 d, read-out: Ryegrass, Italian plant response rating (0 to 100 scale where 0 is no effect and 100 is complete control). In a few lines: as §1

The subject of assay [7] is Galium (catchweed bedstraw, Galium aparine). Kind of assay: Test A postemergence. As to conditions: Galium, post-emergence, 240 h, 125 g ai/ha, postemergence, visual injury rating after approximately 10 d; read-out: Galium plant response rating (0 to 100 scale, 0 no effect, 100 complete control). In a few lines: as §1
The test system of assay [8] is Kochia (Kochia scoparia). Kind of assay: Test A postemergence. The note with it: Bassia scoparia, post-emergence, 240 h, 125 g ai/ha, postemergence, visual injury rating after approximately 10 d; read-out: Kochia plant response rating (0 to 100 scale, 0 no effect, 100 complete control). The method in brief:
as §1

In assay [9] the test system is barnyardgrass (Echinochloa crus-galli). As to the kind of experiment: Test A postemergence. As to conditions: Echinochloa crus-galli, post-emergence, 240 h, 125 g ai/ha, postemergence, visual injury rating after approximately 10 d; read-out: Barnyardgrass plant response rating (0 to 100 scale, 0 no effect, 100 complete control). The method in brief: as §1
Another assay deals with corn (Zea mays). Kind of assay: Test A postemergence. The note with it: Zea mays, post-emergence, 240 h, 125 g ai/ha, postemergence, visual injury rating after approximately 10 d; read-out: Corn plant response rating (0 to 100 scale, 0 no effect, 100 complete control). The method in brief:
as §1

Assay [10] relates to giant foxtail (Setaria faberii). Kind of assay: Test A postemergence. The note with it: Setaria faberi, post-emergence, 240 h, 125 g ai/ha, postemergence, visual injury rating after approximately 10 d; read-out: Foxtail, Giant plant response rating (0 to 100 scale, 0 no effect, 100 complete control). In a few lines:
as §1

For assay [11], the system named is pigweed (Amaranthus retroflexus). Kind of assay: Test A postemergence. The note with it: Amaranthus retroflexus, post-emergence, 240 h, 125 g ai/ha, postemergence, visual injury rating after approximately 10 d; read-out: Pigweed plant response rating (0 to 100 scale, 0 no effect, 100 complete control). In a few lines:
as §1

For assay [12], the system named is ragweed (common ragweed, Ambrosia elatior). As to the kind of experiment: Test A postemergence. As to conditions: Ambrosia artemisiifolia, post-emergence, 240 h, 125 g ai/ha, postemergence, visual injury rating after approximately 10 d; read-out: Ragweed plant response rating (0 to 100 scale, 0 no effect, 100 complete control). In a few lines: as §1
Assay [13] concerns ryegrass, Italian (Italian ryegrass, Lolium multiflorum). As to the kind of experiment: Test A postemergence. The note with it: Lolium multiflorum, post-emergence, 240 h, 125 g ai/ha, postemergence, visual injury rating after approximately 10 d; read-out: Ryegrass, Italian plant response rating (0 to 100 scale, 0 no effect, 100 complete control). The method in brief:
as §1

The test system of assay [14] is wheat (Triticum aestivum). Kind of assay: Test A postemergence. The note with it: Triticum aestivum, post-emergence, 240 h, 125 g ai/ha, postemergence, visual injury rating after approximately 10 d; read-out: Wheat plant response rating (0 to 100 scale, 0 no effect, 100 complete control). The method in brief:
as §1

Consider `CN1C[C@H](c2cc(F)c(F)c(F)c2)[C@@H](C(=O)Nc2ccccc2F)C1=O` [Compound 878], for which the pest or weed control at 125 g/ha was 70% in the assay with Kochia (Kochia scoparia) [1]; 100% in assay [2]; 100% in [3]; 0% in assay [4]; 30% in assay [5]; 30% in [6]. Besides, the pest or weed control at 125 g/ha in assay [7] was found to be 50%; in the assay on Kochia (Kochia scoparia) [8], 20%; in assay [9], 100%; in assay [10], 80%; in [11], 0%; in [12] it was 20%. Also, the pest or weed control at 125 g/ha in assay [13] amounted to 40%. Further, the pest or weed control at 500 g/ha with Kochia (Kochia scoparia) [1] came out at 90%; in assay [2], 100%; in [3], 100%; in assay [4], 40%; in assay [5], 80%; in assay [6] it was 70%. For the same compound, the plant injury at 125 g/ha was 50% in the assay on corn (Zea mays) and 60% in assay [14].
In the case of `COc1cc(C(F)(F)F)ccc1[C@H]1CN(C)C(=O)[C@@H]1C(=O)Nc1ccccc1SC` [Compound 860], the pest or weed control at 125 g/ha stood at 0% in the assay on Kochia (Kochia scoparia) [1]; 90% in assay [2]; 90% in [3]; 60% in assay [4]; 0% in [5]; 20% in [6]. In addition, the pest or weed control at 125 g/ha in assay [7] turned out to be 20%; in the assay on Kochia (Kochia scoparia) [8], 0%; in assay [9] it was 30%; in assay [10] it was 60%; in assay [11], 0%; in assay [12], 0%. In addition, the pest or weed control at 125 g/ha in [13] was determined as 0%. The pest or weed control at 500 g/ha in the assay with Kochia (Kochia scoparia) [1] was determined as 60%; in assay [2] it was 90%; in assay [3] it was 90%; in [4], 90%; in assay [5] it was 50%; in assay [6] it was 40%. Also, the plant injury at 125 g/ha in the assay on corn (Zea mays) was determined as 0%; in assay [14], 20%.
For `CN1C[C@H](c2cccc(COC(F)F)c2)[C@@H](C(=O)Nc2ccccc2F)C1=O` [Compound 875], the pest or weed control at 125 g/ha amounted to 50% with Kochia (Kochia scoparia) [1]; 90% in assay [2]; 90% in assay [3]; 0% in assay [4]; 0% in [5]; 0% in assay [6]. The pest or weed control at 125 g/ha in [7] turned out to be 40%; with Kochia (Kochia scoparia) [8], 40%; in assay [9], 90%; in assay [10], 90%; in assay [11], 0%; in assay [12], 20%. The pest or weed control at 125 g/ha in assay [13] came to 20%. In addition, the pest or weed control at 500 g/ha was 80% in the assay with Kochia (Kochia scoparia) [1]; 90% in [2]; 90% in assay [3]; 0% in assay [4]; 50% in assay [5]; 30% in assay [6]. Moreover, the results for the plant injury at 125 g/ha (in the assay on corn (Zea mays); in assay [14]) were 20% and 0%, respectively.
